Experimental data taken from patent US20250129086A1, “COMPOUND FOR DEGRADING EGFR PROTEIN AND USE THEREOF” (TYK MEDICINES, INC., priority 2021, published 2025).

Legend:
Type in all cases: cell-based, human
[1] = test system: PC-9 (EGFR exon 19 deletion); test: Cell antiproliferative assay (CTG, 72 h), PC-9; conditions: Homo sapiens, Table 2, PC-9 cells
Method: (§1) Test Example 1 Cell Antiproliferative Assay
(§2) H1975: with EGFR: L858R/T790M double mutation; PC-9 with EGFR exon 19 deletion, HCC827 with exon 19 deletion mutation. CellCounting-Lite2.0, Trypsin EDTA, 37° C. CO2 incubator, cell counter, EnVision Serial No.1050454. II. Experimental preparation:
(§3) • (A) Trypsin EDTA was used to digest log-phase cells, medium was added to terminate the reaction, and a cell suspension was made by blowing and mixing with a pipette. • (B) Cell concentration was determined using Vi-cell, and a suspension of 15,000-25,000 cells per milliliter was made depending on the purpose of the experiment and the characteristics of the cells. • (C) After the cell suspension was prepared, it was gently mixed and 100 microliters per well was added so that the density of cells to be tested was 1500-2500 per well.
(§4) • (A) About 2 mg of compound was weighed, and the volume of DMSO required was calculated according to the formula: compound mass (mg)*compound purity (%)/compound molecular weight*1000 • (B) The inoculated cell culture plates were incubated in an incubator and the compounds with concentration gradient were added after about 24 hours. • (C)10 Mm of compound stock solution was diluted to […] with medium, and 50 Mm of compound solution was added sequentially to the second column of the deep-well plate, and […] of medium containing 0.5% DMSO was added to the third to eleventh columns. • (D) Gradient dilution: 125 μl of solution was pipetted from the second column and added to the third column, after mixing; another 125 μl of solution was pipetted from the third column and added to the fourth column, and the operation was repeated until the tenth column. • (E)25 μl of compound was pipetted from the deep-well plate into a 96-well culture plate using a multichannel pipette, and each compound was repeated three times on the 96-well plate. A maximum concentration of 10,000 nm with concentration gradient of 1:4 was eventually formed on the 96-well plate.
(§5) • (A)96-well plates were incubated in an incubator for 72 h. The effect of the compounds was observed under an inverted microscope. • (B)25 μl of CTG solution was added to each well, the plate was put on shaker for 10 minutes and the […] of each well was read.
(§6) The cell viability rate (% Cell Viability) was calculated using the following formula: • % Cell Viability=100%×(Lum_Sample-Lum_LC)/(Lum_HC-Lum_LC) • Lum_HC: Cell reading of 0.1% DMSO control • Lum_Sample: Cell reading with compound added • Lum_LC: Reading of Blank media • IC50 values were obtained by curve fitting with GraphPad Prism 8 software.

[2] = test system: HCC827 (exon 19 deletion mutation); test: Cell antiproliferative assay (CTG, 72 h), HCC827; conditions: Homo sapiens, Table 2, HCC827 cells
Method: as §1, §2, §3, §4, §5, §6

[3] = test system: H1975 (EGFR L858R/T790M double mutation); test: Cell antiproliferative assay (CTG, 72 h), H1975; conditions: Homo sapiens
Method: as §1, §2, §3, §4, §5, §6

[4] = NCI-H1975, 72 h, Table 2, H1975 cells

Row | Structure (SMILES) | IC50 ([1]; PC-9, 72 h) | IC50 ([2]; HCC827, 72 h) | IC50 [3, 4] | IC50 [1] | IC50 [2] | IC50 ([3]; NCI-H1975, Table 2, H1975 cells)
1 | COc1cc(N2CCN(C(=O)CN3CCC(c4ccc(NC5CCC(=O)NC5=O)cc4)CC3)CC2)c(C(F)(F)F)cc1Nc1ncc(Br)c(Nc2ccccc2C(C)=O)n1 (stereo not drawn) [Compound T-289] | 10 to 100 nM | 10 to 100 nM | 10 to 100 nM | – | – | –
2 | COc1cc(N2CCN(C(=O)CN3CCC(c4ccc(NC5CCC(=O)NC5=O)cc4)CC3)CC2)ccc1Nc1ncc(Cl)c(Nc2ccccc2NC(C)=O)n1 (stereo not drawn) [Compound T-195] | 100 to 1000 nM | 100 to 1000 nM | 10 to 100 nM | – | – | –
3 | COc1cc(N2CCN(C(=O)CN3CCC(c4ccc(NC5CCC(=O)NC5=O)cc4)CC3)CC2)ccc1Nc1ncc(Cl)c(Nc2cccc(F)c2)n1 (stereo not drawn) [Compound T-09] | ≥ 1000 nM | ≥ 1000 nM | 10 to 100 nM | – | – | –
4 | COc1cc(N2CCN(C(=O)CN3CCC(c4ccc(NC5CCC(=O)NC5=O)cc4)CC3)CC2)ccc1Nc1ncc(Cl)c(Nc2ccccc2C(=O)NC(C)C)n1 (stereo not drawn) [Compound T-259] | 100 to 1000 nM | 100 to 1000 nM | 10 to 100 nM | – | – | –
5 | COc1cc(N2CCN(C(=O)CN3CCC(c4ccc(NC5CCC(=O)NC5=O)cc4)CC3)C(C)C2)ccc1Nc1ncc(Cl)c(Nc2ccccc2)n1 (stereo not drawn) [Compound T-124] | ≥ 1000 nM | ≥ 1000 nM | 100 to 1000 nM | – | – | –
6 | COc1cc(N2CCN(C(=O)CN3CCC(c4ccc(NC5CCC(=O)NC5=O)cc4)CC3)CC2)ccc1Nc1ncc(Cl)c(Nc2ccc(F)cc2C(C)(C)O)n1 (stereo not drawn) [Compound T-199] | 100 to 1000 nM | 100 to 1000 nM | 10 to 100 nM | – | – | –
7 | COc1cc(N2CCC(N(C)C(=O)CN3CCC(c4ccc(NC5CCC(=O)NC5=O)cc4)CC3)CC2)ccc1Nc1ncc(Cl)c(Nc2ccccc2C(C)=O)n1 (stereo not drawn) [Compound T-353] | 100 to 1000 nM | 100 to 1000 nM | 10 to 100 nM | – | – | –
8 | COc1cc(N2CCN(C(=O)CN3CCC(c4ccc(NC5CCC(=O)NC5=O)cc4)CC3)CC2)ccc1Nc1ncc(C(F)(F)F)c(Nc2ccccc2P(C)(C)=O)n1 (stereo not drawn) [Compound T-46] | ≥ 1000 nM | 100 to 1000 nM | 10 to 100 nM | – | – | –
9 | COc1cc(N2CCN(C(=O)CN3CCC(c4ccc(NC5CCC(=O)NC5=O)cc4)CC3)CC2)ccc1Nc1ncc(Cl)c(Nc2cc(F)ccc2F)n1 (stereo not drawn) [Compound T-132] | ≥ 1000 nM | 100 to 1000 nM | 100 to 1000 nM | – | – | –
10 | COc1cc(N2CCN(c3ncc(Cl)c(Nc4ccccc4C(C)=O)n3)CC2)ncc1NC(=O)CN1CCC(c2ccc(NC3CCC(=O)NC3=O)cc2)CC1 (stereo not drawn) [Compound T-239] | ≥ 1000 nM | 100 to 1000 nM | ≥ 1000 nM | – | – | –
11 | COc1cc(N2CC[C@H](NC(=O)CN3CCC(c4ccc(NC5CCC(=O)NC5=O)cc4)CC3)C2)ccc1Nc1ncc(Cl)c(Nc2ccccc2C(C)=O)n1 (stereo partly drawn) [Compound T-174] | ≥ 1000 nM | ≥ 1000 nM | 100 to 1000 nM | – | – | –
12 | COc1cc(N2CCN(C(=O)CN3CCC(c4ccc5c(N6CCC(=O)NC6=O)nn(C)c5c4)CC3)CC2)ccc1Nc1ncc(Cl)c(Nc2ccccc2)n1 [Compound T-14] | ≥ 1000 nM | ≥ 1000 nM | 10 to 100 nM | – | – | –
13 | COc1cc(N2CCN(C(=O)CN3CCC(c4ccc(NC5CCC(=O)NC5=O)cc4)CC3)CC2)ccc1Nc1ncc(Cl)c(Nc2ccccc2)n1 (stereo not drawn) [Compound T-01] | 100 to 1000 nM | 100 to 1000 nM | 10 to 100 nM | – | – | –
14 | COc1cc(N2CCN(C(=O)CN3CCC(c4ccccc4NC4CCC(=O)NC4=O)CC3)CC2)ccc1Nc1ncc(Cl)c(Nc2ccccc2C(C)=O)n1 (stereo not drawn) [Compound T-193] | 100 to 1000 nM | 100 to 1000 nM | 100 to 1000 nM | – | – | –
15 | COc1cc(N2CCN(C(=O)CN3CCC(c4ccc(Cn5ccc(=O)[nH]c5=O)cc4)CC3)CC2)ccc1Nc1ncc(Cl)c(Nc2ccccc2C(C)=O)n1 [Compound T-332] | 100 to 1000 nM | 100 to 1000 nM | 100 to 1000 nM | – | – | –
16 | COc1cc(N2CCN(C(=O)CN3CCC(c4ccc(NC5CCC(=O)NC5=O)cc4)CC3)CC2)ccc1Nc1ncc(Cl)c(Nc2ccccc2OC(=O)N(C)C)n1 (stereo not drawn) [Compound T-152] | – | – | – | ≥ 1000 nM | ≥ 1000 nM | 100 to 1000 nM
17 | CNC(=O)c1ccccc1Nc1nc(Nc2cc(C)c(N3CCN(C(=O)CN4CCC(c5ccc(NC6CCC(=O)NC6=O)cc5)CC4)CC3)cc2OC)ncc1Br (stereo not drawn) [Compound T-255] | 10 to 100 nM | 10 to 100 nM | ≤ 10 nM | – | – | –
18 | COc1cc(N2CCC[C@H](NC(=O)CN3CCC(c4ccc(NC5CCC(=O)NC5=O)cc4)CC3)C2)ccc1Nc1ncc(Cl)c(Nc2ccccc2C(C)=O)n1 (stereo partly drawn) [Compound T-166] | ≥ 1000 nM | ≥ 1000 nM | 100 to 1000 nM | – | – | –
19 | COc1cc(N2CCN(C(=O)CN3CCC(c4ccc(NC5CCC(=O)NC5=O)cc4)CC3)CC2)ccc1Nc1ncc(Br)c(Nc2ccccc2C(=O)NC2CCCC2)n1 (stereo not drawn) [Compound T-342] | 100 to 1000 nM | 10 to 100 nM | 10 to 100 nM | – | – | –
20 | COc1cc(N2CCN(C(=O)CN3CCC(c4ccc(NC5CCC(=O)NC5=O)cc4)CC3)CC2)c(C)cc1Nc1ncc(Cl)c(Nc2ccccc2P(C)(C)=O)n1 (stereo not drawn) [Compound T-327] | 100 to 1000 nM | 100 to 1000 nM | 10 to 100 nM | – | – | –
21 | COc1cc(N2CCN(C(=O)CN3CCC(c4ccc(NC5CCC(=O)NC5=O)cc4F)CC3)CC2)ccc1Nc1ncc(Cl)c(Nc2ccccc2)n1 (stereo not drawn) [Compound T-04] | 100 to 1000 nM | ≥ 1000 nM | 10 to 100 nM | – | – | –
22 | COc1cc(N2CC(N(C)C(=O)CN3CCC(c4ccc(NC5CCC(=O)NC5=O)cc4)CC3)C2)ccc1Nc1ncc(Cl)c(Nc2ccccc2C(C)=O)n1 (stereo not drawn) [Compound T-170] | ≥ 1000 nM | ≥ 1000 nM | 100 to 1000 nM | – | – | –
23 | COc1cc(N2CCN(C(=O)CN3CCC(c4ccc(NC5CCC(=O)NC5=O)cc4)CC3)CC2)ccc1Nc1ncc(Cl)c(Nc2ccccc2C(=O)NC2CCCC2)n1 (stereo not drawn) [Compound T-341] | ≥ 1000 nM | 100 to 1000 nM | 10 to 100 nM | – | – | –
24 | COc1cc(N2CCN(C(=O)CN3CCC(c4ccc(NC5CCC(=O)NC5=O)cc4)CC3)CC2)ccc1Nc1ncc(Br)c(Nc2cccc3c2C(=O)NC3)n1 (stereo not drawn) [Compound T-272] | 10 to 100 nM | 10 to 100 nM | ≤ 10 nM | – | – | –
25 | COc1cc(N2CCN(C(=O)CN3CCC(c4ccc(NC5CCC(=O)NC5=O)cc4)CC3)CC2)c(C)cc1Nc1ncc(Cl)c(Nc2ccccc2)n1 (stereo not drawn) [Compound T-122] | 100 to 1000 nM | 100 to 1000 nM | 100 to 1000 nM | – | – | –
26 | COc1cc(N2CCN(C(=O)CN3CCC(c4ccc(NC5CCC(=O)NC5=O)cc4)CC3)CC2)ccc1Nc1ncc(Cl)c(Nc2ccccc2C#N)n1 (stereo not drawn) [Compound T-139] | ≥ 1000 nM | 100 to 1000 nM | 100 to 1000 nM | – | – | –
27 | COc1cc(N2CCC[C@H](N(C)CN3CCC(c4ccc(NC5CCC(=O)NC5=O)cc4)CC3)C2)ccc1Nc1ncc(Cl)c(Nc2ccccc2C(C)=O)n1 (stereo partly drawn) [Compound T-167] | ≥ 1000 nM | ≥ 1000 nM | 100 to 1000 nM | – | – | –
28 | O=C1CCC(Nc2ccc(C3CCN(CC(=O)N4CCN(c5ccc(Nc6ncc(Cl)c(Nc7ccccc7)n6)c(Cl)c5)CC4)CC3)cc2)C(=O)N1 (stereo not drawn) [Compound T-328] | 100 to 1000 nM | 100 to 1000 nM | 100 to 1000 nM | – | – | –
29 | CNC(=O)c1ccccc1Nc1nc(Nc2cc(C)c(N3CCN(C(=O)CN4CCC(c5ccc(NC6CCC(=O)NC6=O)cc5F)CC4)CC3)cc2OC)ncc1Cl (stereo not drawn) [Compound T-367] | 10 to 100 nM | 10 to 100 nM | 10 to 100 nM | – | – | –
